The values below come from patent US20240123045A1, “NONAUTOLOGOUS MULTI-STRESSED CANCER CELLS AND USES THEREOF FOR VACCINATING AND TREATING CANCERS” (BRENUS PHARMA, priority 2021, published 2024).

Structures are written as SMILES. Where two headings read alike, the source gives them in different places.

In one test the test system is CD95 (FAS receptor). Put plainly: FACS marker expression: CD95. Format: cell-based, human. To be noted: HT-29 cells treated with oxaliplatin. How it is done:
(§1) A comparison of marker expression was carried out to validate each DS-A and DS-B.

The next test relates to HCT-116. Kind of test: Cytotoxic assay (IC50) in HCT-116. Format: cell-based, human. An excerpt:
(§2) DS-B: cells were exposed to a chemical stress comprising a chemical stimulation with chemotherapeutic agents commonly used for the colorectal cancer: 5-FU (Sigma, F6627), oxaliplatin (Sigma, Y0000271) or SN-38 (7-ethyl-10-hydroxy-camptothecin) (Sigma, H0165). In particular, the association of a chemotherapeutic agent with each cell line was based on literature assumptions (Table 3), and further on the degree of resistance of the cell line to each chemotherapeutic agent. For each cell line, this resistance level to each chemotherapeutic agent was assessed by determining the half maximal inhibitory concentration (IC50) in a cytotoxic assay.

The subject of another test is HT-29. Kind of test: Cytotoxic assay (IC50) in HT-29. In kind it is cell-based, human.
From the text: as §2

Test [1] deals with colorectal human cell lines. To be noted: according to the literature; cited from earlier work.
The next test has as its system LoVo. Put plainly: Cytotoxic assay (IC50) in LoVo. Format: cell-based, human.
From the text: as §2

The subject of the next test is CD107 (LAMP-1). Put plainly: FACS marker expression: CD107. Format: cell-based, human. As to conditions: HT-29 cells treated with oxaliplatin. The protocol: as §1
(§3) Finally, the vaccine composition (DP or “STC-1010”) could be formulated by pooling all six DS (3 DS-A—one for each cell line; and 3 DS-B—one for each cell line) in 100 μL doses (each comprising 3 million cells).

The subject of another test is CD54 (ICAM-1). Put plainly: FACS marker expression: CD54. As to conditions: HT-29 cells treated with oxaliplatin. In kind it is cell-based, human. How it is done: as §1
The subject of a further test is CD66 (CEA). Put plainly: FACS marker expression: CD66. Format: cell-based, human. The protocol: as §1
A further test deals with CD243 (MDR-1). Put plainly: FACS marker expression: CD243. In kind it is cell-based, human. As to conditions: LoVo cells treated with 5-FU. The protocol: as §1, §3
In another test the test system is SW480. Kind of test: Cytotoxic assay (IC50) in SW480. Format: cell-based. To be noted: Homo sapiens, SW480 cell line.
From the text: as §2

[2] abbreviates: HCT-116 cell line, cytotoxic assay, read-out: IC50.
[3] abbreviates: HT-29 cell line, cytotoxic assay, read-out: IC50.
Where [4] appears, read: LoVo cell line, cytotoxic assay, read-out: IC50.

Turning to `O=C1[O][Pt]2([NH][C@@H]3CCCC[C@H]3[NH]2)[O]C1=O` [Oxaliplatin, oxaliplatin], in the test with CD95 (FAS receptor), the “CD95 expression as compared to unstressed cells” value was “overexpression”. Also, the half-maximal inhibitory concentration (IC50) turned out to be 600 nM in the test on HCT-116 (setting [2]), 460 nM in the test on HT-29 (setting [3]) and 1100 nM with LoVo (setting [4]). Moreover, the Resistance cell lines result in test [1] is given as “HCT-116, HT-29, LoVo, SW48”. In the test on CD107 (LAMP-1), the “CD107 expression as compared to unstressed cells” value is reported as “overexpression”. In addition, in the test on CD54 (ICAM-1), the “CD54 expression as compared to unstressed cells” value is given as “overexpression”.

`CCc1c2c(nc3ccc(O)cc13)-c1cc3c(c(=O)n1C2)COC(=O)[C@]3(O)CC` [SN-38, 7-ethyl-10-hydroxy-camptothecin]: the IC50 came to 50 nM in the test with HCT-116 (setting [2]), 130 nM with HT-29 (setting [3]) and 22 nM with LoVo (setting [4]). For the same molecule, in [1], the Resistance cell lines result is listed as “HCT-116, HT-29, SW48”. Moreover, the “CD66 expression as compared to unstressed cells” value in the test with CD66 (CEA) (HCT-116 cells treated with SN-38) is “overexpression”.

In the case of `O=c1[nH]cc(F)c(=O)[nH]1` [5-FU, fluorouracil], the 50% inhibitory concentration (IC50) in the test with HCT-116 (Homo sapiens, HCT-116) was 17000 nM; in the test on HT-29 (Homo sapiens, HT-29), 3600 nM; in the test with SW480, 23100 nM; with LoVo (Homo sapiens, LoVo), 2400 nM. Moreover, the Resistance cell lines result in test [1] is “HCT-116, HT-29, SW48, SW480”. Also, the “CD243 expression as compared to unstressed cells” value in the test on CD243 (MDR-1) is “overexpression”. In the test with CD66 (CEA) (LoVo cells treated with 5-FU), the “CD66 expression as compared to unstressed cells” value was “overexpression”.

For orientation: IC50 means the point on the concentration scale where inhibition reaches its midpoint.
